Test results from PubChem BioAssay (NCI).
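Interpolation was linear, between the two tested concentrations surrounding the appropriate level; five concentrations were tested over 48 hours in 96-well plates. Abbreviation: GI50, concentration required for 50% inhibition of growth. At the TGI there is no net growth.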

Assays:
Assay in all cases: NCI-60 cell line screen, 48 h
[1] = system: MCF7 breast
[2] = system: K-562 leukemia
[3] = system: HL-60(TB) leukemia
[4] = system: SR leukemia
[5] = system: SK-MEL-28 melanoma
[6] = system: NCI-H522 lung
[7] = system: SK-MEL-5 melanoma
[8] = system: OVCAR-4 ovarian
[9] = system: BT-549 breast
[10] = system: IGROV1 ovarian
[11] = system: SF-295 CNS
[12] = system: NCI/ADR-RES ovarian
[13] = system: LOX IMVI melanoma
[14] = system: MOLT-4 leukemia
[15] = system: SK-OV-3 ovarian
[16] = system: UACC-257 melanoma
[17] = system: UO-31 renal
[18] = system: T-47D breast
[19] = system: SF-268 CNS
[20] = system: MDA-MB-435
[21] = system: MDA-MB-468 breast
[22] = system: PC-3 prostate
[23] = system: ACHN renal
[24] = system: COLO 205 colon
[25] = system: HCT-15 colon
[26] = system: NCI-H460 lung
[27] = system: SNB-19 CNS
[28] = system: SK-MEL-2 melanoma
[29] = system: HT29 colon
[30] = system: UACC-62 melanoma
[31] = system: RXF 393 renal
[32] = system: KM12 colon
[33] = system: 786-0 renal
[34] = system: HOP-92 NSCLC
[35] = system: SN12C renal
[36] = system: NCI-H226 lung
[37] = system: HCC-2998 colon
[38] = system: A549 NSCLC
[39] = system: U251 CNS
[40] = system: SW-620 colon
[41] = system: HOP-62 NSCLC
[42] = system: MDA-MB-231 breast
[43] = system: HCT-116 colon
[44] = system: SNB-75 CNS
[45] = system: OVCAR-8 ovarian
[46] = system: RPMI-8226 leukemia
[47] = system: M14 melanoma
[48] = system: SF-539 CNS
[49] = system: TK-10 renal
[50] = system: OVCAR-3 ovarian
[51] = system: CAKI-1 renal
[52] = system: NCI-H23 lung
[53] = system: HS 578T breast
[54] = system: DU-145 prostate
[55] = system: EKVX NSCLC
[56] = system: A498 renal
[57] = system: CCRF-CEM leukemia
[58] = system: OVCAR-5 ovarian
[59] = system: MALME-3M melanoma

Cc1cc2nc3c4ccccc4n(CCNCCN(C)C)c3nc2cc1C
GI50 [1]: 3.27 µM | TGI [1]: 14.6 µM | GI50 [2]: 3.35 µM | TGI [2]: 13.7 µM | GI50 [3]: 5.51 µM | TGI [3]: 20.3 µM | GI50 [4]: 2.01 µM | TGI [4]: 5.92 µM | GI50 [5]: 7.61 µM | TGI [5]: 20.1 µM | GI50 [6]: 8.38 µM | TGI [6]: 23.5 µM | GI50 [7]: 12.6 µM | TGI [7]: 25.6 µM | GI50 [8]: 4.89 µM | TGI [8]: 19.1 µM | GI50 [9]: 14.1 µM | TGI [9]: 28 µM | GI50 [10]: 4.81 µM | TGI [10]: 18.5 µM | GI50 [11]: 6.48 µM | TGI [11]: 19.6 µM | GI50 [12]: 8.46 µM | TGI [12]: 29 µM | GI50 [13]: 3.07 µM | TGI [13]: 15.3 µM | GI50 [14]: 4.09 µM | TGI [14]: 15.6 µM | GI50 [15]: 11.7 µM | TGI [15]: 29.4 µM | GI50 [16]: 1.98 µM | TGI [16]: 5.35 µM | GI50 [17]: 1.49 µM | TGI [17]: 14.6 µM | GI50 [18]: 12.2 µM | TGI [18]: 31.2 µM | GI50 [19]: 9.33 µM | TGI [19]: 23.9 µM | GI50 [20]: 5.23 µM | TGI [20]: 17.8 µM | GI50 [21]: 7.78 µM | TGI [21]: 21.3 µM | GI50 [22]: 5.23 µM | TGI [22]: 23.2 µM | GI50 [23]: 4.31 µM | TGI [23]: 17 µM | GI50 [24]: 3.98 µM | TGI [24]: 17.3 µM | GI50 [25]: 5.23 µM | TGI [25]: 18.3 µM | GI50 [26]: 3.61 µM | TGI [26]: 13.6 µM | GI50 [27]: 7.26 µM | TGI [27]: 20 µM | GI50 [28]: 12.6 µM | TGI [28]: 27.6 µM | GI50 [29]: 3.84 µM | TGI [29]: 15.5 µM | GI50 [30]: 6.63 µM | TGI [30]: 19.8 µM | GI50 [31]: 5.17 µM | TGI [31]: 18.2 µM | GI50 [32]: 13.2 µM | TGI [32]: 26.9 µM | GI50 [33]: 8.4 µM | TGI [33]: 22.2 µM | GI50 [34]: 3.45 µM | TGI [34]: 22.5 µM | GI50 [35]: 4.63 µM | TGI [35]: 18.5 µM | GI50 [36]: 6.13 µM | TGI [36]: 26.5 µM | GI50 [37]: 5.47 µM | TGI [37]: 19.5 µM | GI50 [38]: 4.67 µM | TGI [38]: 19.5 µM | GI50 [39]: 6.09 µM | TGI [39]: 19.7 µM | GI50 [40]: 3.87 µM | TGI [40]: 16.2 µM | GI50 [41]: 4.98 µM | TGI [41]: 19.8 µM | GI50 [42]: 6.88 µM | TGI [42]: 21.1 µM | GI50 [43]: 5.35 µM | TGI [43]: 18.8 µM | GI50 [44]: 3.33 µM | TGI [44]: 20.3 µM | GI50 [45]: 4.66 µM | TGI [45]: 20.3 µM | GI50 [46]: 3.36 µM | TGI [46]: 18.3 µM | GI50 [47]: 7.43 µM | TGI [47]: 23.3 µM | GI50 [48]: 4.96 µM | TGI [48]: 17.4 µM | GI50 [49]: 8.06 µM | TGI [49]: 20.8 µM | GI50 [50]: 7.35 µM | TGI [50]: 20.5 µM | GI50 [51]: 10.8 µM | TGI [51]: 22.7 µM | GI50 [52]: 11.5 µM | TGI [52]: 26.6 µM | GI50 [53]: 9.6 µM | TGI [53]: 30.7 µM | GI50 [54]: 5.69 µM | TGI [54]: 18.1 µM | GI50 [55]: 11.1 µM | TGI [55]: 24.2 µM | GI50 [56]: 14.5 µM | TGI [56]: 29.2 µM | GI50 [57]: 11.5 µM | TGI [57]: 31.7 µM | GI50 [58]: 6.68 µM | TGI [58]: 19.5 µM | GI50 [59]: 9.35 µM | TGI [59]: 23.2 µM

Cc1ccc(C(SCCNCc2cc(N(C)C)ccn2)(c2ccccc2)c2ccccc2)cc1
GI50 [1]: 0.373 µM | TGI [1]: 1.57 µM | GI50 [2]: 2.22 µM | TGI [2]: 7.73 µM | GI50 [3]: 1.73 µM | TGI [3]: 4.19 µM | GI50 [4]: 1.34 µM | TGI [4]: 9.42 µM | GI50 [5]: 5.56 µM | TGI [5]: 17.8 µM | GI50 [6]: 2.34 µM | TGI [6]: 6.63 µM | GI50 [7]: 3.59 µM | TGI [7]: 12.8 µM | GI50 [8]: 4.4 µM | TGI [8]: 20.3 µM | GI50 [9]: 2.94 µM | TGI [9]: 7.87 µM | GI50 [10]: 3.81 µM | TGI [10]: 16.1 µM | GI50 [11]: 1.46 µM | TGI [11]: 2.86 µM | GI50 [13]: 1.42 µM | TGI [13]: 2.77 µM | GI50 [14]: 2.38 µM | TGI [14]: 6.9 µM | GI50 [15]: 3.84 µM | TGI [15]: 14.4 µM | GI50 [16]: 4.27 µM | TGI [16]: 15.4 µM | GI50 [17]: 2.96 µM | TGI [17]: 16.2 µM | GI50 [18]: 2.81 µM | TGI [18]: 11 µM | GI50 [19]: 4.46 µM | TGI [19]: 18.7 µM | GI50 [20]: 1.55 µM | TGI [20]: 4.67 µM | GI50 [21]: 2.35 µM | TGI [21]: 6.87 µM | GI50 [22]: 2.63 µM | TGI [22]: 11.9 µM | GI50 [23]: 4.72 µM | TGI [23]: 17.3 µM | GI50 [24]: 1.7 µM | TGI [24]: 3.17 µM | GI50 [25]: 0.496 µM | TGI [25]: 1.76 µM | GI50 [26]: 3.02 µM | TGI [26]: 9.9 µM | GI50 [27]: 4.42 µM | TGI [27]: 16.3 µM | GI50 [29]: 1.98 µM | TGI [29]: 4.17 µM | GI50 [30]: 9.9 µM | TGI [30]: 21.8 µM | GI50 [31]: 3.03 µM | TGI [31]: 12.5 µM | GI50 [32]: 3.34 µM | TGI [32]: 12 µM | GI50 [33]: 1.88 µM | TGI [33]: 3.83 µM | GI50 [34]: 1.85 µM | TGI [34]: 8.82 µM | GI50 [35]: 3.94 µM | TGI [35]: 14.6 µM | GI50 [36]: 14 µM | TGI [36]: 28.1 µM | GI50 [37]: 1.42 µM | TGI [37]: 2.75 µM | GI50 [38]: 4.13 µM | TGI [38]: 18 µM | GI50 [39]: 2.69 µM | TGI [39]: 10.4 µM | GI50 [40]: 2.52 µM | TGI [40]: 11.4 µM | GI50 [41]: 3.26 µM | TGI [41]: 14.3 µM | GI50 [42]: 2.35 µM | TGI [42]: 6.33 µM | GI50 [43]: 1.23 µM | TGI [43]: 5.22 µM | GI50 [44]: 1.96 µM | TGI [44]: 12.4 µM | GI50 [45]: 3.3 µM | TGI [45]: 20 µM | GI50 [46]: 2.08 µM | TGI [46]: 5.48 µM | GI50 [47]: 1.55 µM | TGI [47]: 3.5 µM | GI50 [48]: 2.2 µM | TGI [48]: 4.89 µM | GI50 [49]: 4.68 µM | TGI [49]: 17.3 µM | GI50 [50]: 2.65 µM | TGI [50]: 10.3 µM | GI50 [51]: 3.28 µM | TGI [51]: 15.5 µM | GI50 [52]: 1.72 µM | TGI [52]: 3.32 µM | GI50 [53]: 2.58 µM | TGI [53]: 10.5 µM | GI50 [54]: 3.54 µM | TGI [54]: 12.5 µM | GI50 [55]: 1.49 µM | TGI [55]: 3.9 µM | GI50 [56]: 13.4 µM | TGI [56]: 27 µM | GI50 [57]: 2.03 µM | TGI [57]: 8.53 µM | GI50 [58]: 5.19 µM | TGI [58]: 17.9 µM | GI50 [59]: 1.75 µM | TGI [59]: 3.29 µM
